Patent publication US20190133968A1, “Applications of benzophenones in preparation of drug” (SHANXI MEDICAL UNIVERSITY, priority 2016, published 2019)

Test system: DN rats
Assay: type II diabetic nephropathy (DN) rat model (high-sugar high-fat diet + streptozocin)
Type: in vivo, SD (Sprague Dawley) rats
Conditions: for BUN / CREA / Glycated hemoglobin / Urinary protein / mALB (microalbumin in urine) / ICAM-1 / IL-1β / IL-6 / MDA / NF-κB / SOD / T-AOC / TGF-β1 / TNF-α / VCAM-1 / Glucose (GLU) / HDL-C / LDL-C / TC / TG / UA / Kidney coefficient: gavage, 6 weeks; for Urinary protein / mALB (microalbumin in urine): 6-hour urine; for ICAM-1 / IL-1β / IL-6 / MDA / NF-κB / SOD / T-AOC / TGF-β1 / TNF-α / VCAM-1: renal tissues; for Glucose (GLU) / HDL-C / LDL-C / TC / TG / UA: serum; for Kidney coefficient: weights of two kidneys/body weight
Method: The solid dispersions are prepared through a solvent method, comprising steps of: respectively precisely weighing LM49, PVPK30 and tween80 with a weight ratio of 1:5:1, and A8, PVPK30 and tween80 with a weight ratio of 1:4:1; dissolving with appropriate absolute ethyl alcohol, continuously stirring, and uniformly mixing; placing on the water bath at 60° C., evaporating and removing the absolute ethyl alcohol, and obtaining a viscous material; placing in the freezer at −20° C., and freezing for 2 hours; taking out from the freezer, then placing in the vacuum drying oven, and drying for 24 hours; after becoming embrittlement, smashing and sieving with a sieve of 80 meshes, and then placing in the dryer for storage.
The healthy adult male SD rats (having a weight of 180-220 g) are fed with the high-sugar and high-fat diet for 4 weeks; the rats are fasting overnight; and streptozocin (STZ) of 40 mg/kg is intraperitoneally injected into the rats. The rats of normal control group are injected with the sodium citrate buffer of same volume; 72 hours later, the rats are fasting for 12 hours. […] During the administration period, the successfully established model rats are still fed with the high-sugar and high-fat diet, while the rats of the normal control group are fed with the normal diet.
After administration for 6 weeks, 6-hour urine of the rats is collected with the metabolism cage.
The rats are fasting overnight and anesthetized intraperitoneally, then the abdominal aorta blood thereof is drawn for measuring the related indexes. The two kidneys of each rat are washed with the normal saline; weights of the kidneys are recorded; and the kidney coefficient (weights of two kidneys/body weight) is calculated. The renal tissues (comprising the glomerulus and renal tubules) at the same part of the left kidney are cut lengthwise and immersed in the 10% neutral formalin for pathomorphology analysis, and the other parts of the left kidney are used for biochemical index measurement; the right kidney is used for mechanism research and stored in the freezer at −80° C.
After successfully establishing the model rats, expect the normal control group (ten rats), the remaining rats are randomly divided into eight groups, wherein each group has twelve rats. The eight groups are respectively the model group, the LM49 solid dispersion low-dose group (with the drug concentration of 3 mg/kg), the LM49 solid dispersion medium-dose group (with the drug concentration of 9 mg/kg), the LM49 solid dispersion high-dose group (with the drug concentration of 27 mg/kg), the A8 solid dispersion low-dose group (with the drug concentration of 3 mg/kg), the A8 solid dispersion medium-dose group (with the drug concentration of 9 mg/kg), the A8 solid dispersion high-dose group (with the drug concentration of 27 mg/kg), and the captopril control group (with the drug concentration of 15 mg/kg).
Administration Way: By Gavage.
The rats of the normal control group and the model group are administrated with the normal saline of 1.0 ml/100 g; the rats of the positive control group, the LM49 solid dispersion high-dose, medium-dose and low-dose groups and the A8 solid dispersion high-dose, medium-dose and low-dose groups are respectively administrated with the drugs of different concentrations, and the administration volume is 1.0 ml/100 g.
The solid dispersions are dissolved by the normal saline; and the rats of the positive control group are administrated with the 0.5% CMC-Na (sodium carboxymethyl cellulose) suspension.
The rats are administrated seven days a week, for totally six weeks.
The IBM SPSS Statistics 20 software is used for data processing, and the data is represented in x±s. The one-way analysis of variance (ANOVA) is adopted for comparison among the groups. According to the homogeneity test results of variance, if the variance is equal, the LSD (least significant difference) test is adopted; if the variance is unequal, the Dunnett's T3 test is adopted. […]

O=C(c1cc(Br)ccc1O)c1cc(O)c(O)cc1Br [LM49, 2,5′-dibromo-4,5,2′-trihydroxyldiphenylmethanone]
BUN (DN rats, high-dose 27 mg/kg): 10.66 ± 2.52 mmol/L | CREA (DN rats, high-dose 27 mg/kg): 55.12 ± 4.05 µmol/L | Glycated hemoglobin (DN rats, high-dose 27 mg/kg): 8.10 ± 1.50% | Urinary protein (DN rats, high-dose 27 mg/kg): 2.82 ± 0.54^□□▴◯● mg/6 h | mALB (microalbumin in urine) (DN rats, high-dose 27 mg/kg): 52.22 ± 7.46^□□▴▴ μg/6 h | ICAM-1 (DN rats, high-dose 27 mg/kg): 282.88 ± 59.07 pg/mgprog | IL-1β (DN rats, high-dose 27 mg/kg): 121.69 ± 16.12 pg/mgprog | IL-6 (DN rats, high-dose 27 mg/kg): 119.09 ± 11.51^□ pg/mgprog | MDA (DN rats, high-dose 27 mg/kg): 1.16 ± 0.19 nmol/mgprog | NF-κB (DN rats, high-dose 27 mg/kg): 215.39 ± 43.61^□□▴▴◯◯ pg/mgprog | SOD (DN rats, high-dose 27 mg/kg): 4.06 ± 0.78 U/mgprog | T-AOC (DN rats, high-dose 27 mg/kg): 1.37 ± 0.31 U/mgprog | TGF-β1 (DN rats, high-dose 27 mg/kg): 30.58 ± 5.83^□□▴▴ pg/mgprot | TNF-α (DN rats, high-dose 27 mg/kg): 279.29 ± 41.89^□ pg/mgprog | VCAM-1 (DN rats, high-dose 27 mg/kg): 26.85 ± 5.63 pg/mgprog | Glucose (GLU) (DN rats, high-dose 27 mg/kg): 10.73 ± 2.89^□□▴◯ mmol/L | HDL-C (DN rats, high-dose 27 mg/kg): 1.17 ± 0.24 mmol/L | LDL-C (DN rats, high-dose 27 mg/kg): 1.61 ± 0.54^□□ mmol/L | TC (DN rats, high-dose 27 mg/kg): 3.00 ± 0.79^□□ mmol/L | TG (DN rats, high-dose 27 mg/kg): 0.54 ± 0.13^□□ mmol/L | UA (DN rats, high-dose 27 mg/kg): 29.41 ± 7.23^□□●● μmol/L | Kidney coefficient (DN rats, high-dose 27 mg/kg): 1.00 ± 0.09% | lesions of the renal tissues (DN rats, kidney pathology (HE, Masson staining)): effectively reduce the lesions of the renal tissues | BUN (DN rats, low-dose 3 mg/kg): 11.59 ± 2.78 mmol/L | CREA (DN rats, low-dose 3 mg/kg): 54.11 ± 3.50 µmol/L | Glycated hemoglobin (DN rats, low-dose 3 mg/kg): 9.01 ± 0.61% | Urinary protein (DN rats, low-dose 3 mg/kg): 5.81 ± 1.42^□□ mg/6 h | mALB (microalbumin in urine) (DN rats, low-dose 3 mg/kg): 143.47 ± 33.28^□□●● μg/6 h | ICAM-1 (DN rats, low-dose 3 mg/kg): 384.02 ± 100.59 pg/mgprog | IL-1β (DN rats, low-dose 3 mg/kg): 158.77 ± 43.38 pg/mgprog | IL-6 (DN rats, low-dose 3 mg/kg): 195.42 ± 2.34 pg/mgprog | MDA (DN rats, low-dose 3 mg/kg): 1.65 ± 0.25 nmol/mgprog | NF-κB (DN rats, low-dose 3 mg/kg): 2415.59 ± 515.30 pg/mgprog | SOD (DN rats, low-dose 3 mg/kg): 5.66 ± 1.87 U/mgprog | T-AOC (DN rats, low-dose 3 mg/kg): 1.52 ± 0.58 U/mgprog | TGF-β1 (DN rats, low-dose 3 mg/kg): 100.46 ± 25.56 pg/mgprot | TNF-α (DN rats, low-dose 3 mg/kg): 573.35 ± 150.75 pg/mgprog | VCAM-1 (DN rats, low-dose 3 mg/kg): 39.34 ± 10.56 pg/mgprog | Glucose (GLU) (DN rats, low-dose 3 mg/kg): 19.94 ± 6.09^□□ mmol/L | HDL-C (DN rats, low-dose 3 mg/kg): 1.27 ± 0.12 mmol/L | LDL-C (DN rats, low-dose 3 mg/kg): 1.90 ± 0.54^□□ mmol/L | TC (DN rats, low-dose 3 mg/kg): 3.28 ± 0.59^□□ mmol/L | TG (DN rats, low-dose 3 mg/kg): 0.38 ± 0.10^□□ mmol/L | UA (DN rats, low-dose 3 mg/kg): 26.01 ± 6.54^□□●● μmol/L | Kidney coefficient (DN rats, low-dose 3 mg/kg): 1.08 ± 0.09% | BUN (DN rats, medium-dose 9 mg/kg): 10.97 ± 3.01 mmol/L | CREA (DN rats, medium-dose 9 mg/kg): 55.25 ± 1.01 µmol/L | Glycated hemoglobin (DN rats, medium-dose 9 mg/kg): 8.59 ± 0.85% | Urinary protein (DN rats, medium-dose 9 mg/kg): 5.29 ± 0.61^□□ mg/6 h | mALB (microalbumin in urine) (DN rats, medium-dose 9 mg/kg): 125.38 ± 23.67^□□● μg/6 h | ICAM-1 (DN rats, medium-dose 9 mg/kg): 334.79 ± 55.46 pg/mgprog | IL-1β (DN rats, medium-dose 9 mg/kg): 146.20 ± 16.12 pg/mgprog | IL-6 (DN rats, medium-dose 9 mg/kg): 168.44 ± 30.33 pg/mgprog | MDA (DN rats, medium-dose 9 mg/kg): 1.92 ± 0.34 nmol/mgprog | NF-κB (DN rats, medium-dose 9 mg/kg): 1017.81 ± 239.12^□▴●● pg/mgprog | SOD (DN rats, medium-dose 9 mg/kg): 5.33 ± 1.01 U/mgprog | T-AOC (DN rats, medium-dose 9 mg/kg): 1.93 ± 0.43 U/mgprog | TGF-β1 (DN rats, medium-dose 9 mg/kg): 53.60 ± 11.60^□● pg/mgprot | TNF-α (DN rats, medium-dose 9 mg/kg): 436.04 ± 84.54 pg/mgprog | VCAM-1 (DN rats, medium-dose 9 mg/kg): 34.76 ± 5.04 pg/mgprog | Glucose (GLU) (DN rats, medium-dose 9 mg/kg): 18.58 ± 2.71^□□ mmol/L | HDL-C (DN rats, medium-dose 9 mg/kg): 1.16 ± 0.21 mmol/L | LDL-C (DN rats, medium-dose 9 mg/kg): 1.51 ± 0.48^□□ mmol/L | TC (DN rats, medium-dose 9 mg/kg): 2.71 ± 0.49^□□ mmol/L | TG (DN rats, medium-dose 9 mg/kg): 0.30 ± 0.11^□□ mmol/L | UA (DN rats, medium-dose 9 mg/kg): 25.63 ± 5.83^□□●● μmol/L | Kidney coefficient (DN rats, medium-dose 9 mg/kg): 1.09 ± 0.14% | effect on resisting the DN of rats (overall summary in words): obvious effect on resisting the DN of rats
